Experimental data as given in paper PMC12526058, “1,2,4-Thiadiazolidin-3,5-Diones as Inhibitors of Cysteine Proteases” (Molecules, 2025).
“And” between values parts separate entries of the source, which are not always exact repeats. Equal entries are not always repeated. “Also recorded” adds a separate entry of the source.

How the values were obtained:
Bromelain = Bromelain (Ananas comosus, UniProt P14518); parameters: method as in PMID 33177555; conditions: cited from earlier work
Papain [1] = target: T1, Papain (Carica papaya, UniProt P00784); parameters: method as in PMID 21329361; conditions: cited from earlier work
T1 construct: purchased Sigma
T1 sequence (P00784 134-345): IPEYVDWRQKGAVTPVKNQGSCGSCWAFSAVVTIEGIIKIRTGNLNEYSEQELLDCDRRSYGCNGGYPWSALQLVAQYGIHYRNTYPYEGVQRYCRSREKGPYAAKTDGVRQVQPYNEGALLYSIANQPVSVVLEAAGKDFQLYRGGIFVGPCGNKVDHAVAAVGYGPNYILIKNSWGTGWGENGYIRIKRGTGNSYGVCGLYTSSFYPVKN

PLpro [2] = conditions: noncovalent, binding to S4–S3 subsites; read-out: IC50 for inhibition of PLpro; cited from earlier work
Papain [3] = target: T1, Papain; assay: Papain inactivation kinetics, two-step irreversible mechanism; format: biochemical; conditions: Papain 48nM, Z-FR-MCA 1.5µM, 100 mM sodium phosphate, 1 mM EDTA, pH 6.0; for KI (inactivation): read-out: Ki, Papain inactivation (Ki = k-3/k3)
Description: (§1) This is confirmed by kinetic analyses of the reaction of THIA-3 with Papain, used as a diagnostic method as previously reported. The kinetic constant values of the reaction of the ten THIA compounds with Papain, for the reaction paths shown below, are reported in Table S2.
Table S2. Values of the kinetic constants for Papain inactivation kinetics analyses by all THIA compounds obtained for a two-step irreversible mechanism (see below the reaction paths) as reported in the reference (31)
Conditions: Papain 48nM, substrate Z-FR-MCA 1.5µM. Buffer: 100 mM sodium phosphate, 1 mM EDTA, pH 6.0. The kinetic constants for the reaction are indicated in the scheme below.
Ki represents the relation: Ki = k-3/k3, which is the dissociation constant describing the binding affinity between the inhibitor and the enzyme. In contrast, the IC50 is the concentration of inhibitor required to reduce enzymatic activity to half of its uninhibited value. The IC50 is less precise than Ki and depends on measurement conditions and the mechanism of inhibition. […] It is noteworthy that kinetic constants for Papain inactivation by THIA compounds are consistent with a two-step irreversible mechanism.

Papain [4] = target: T1, Papain; assay: Papain inhibition, IC50 (Z-Phe-Arg-MCA substrate, 10 min pre-incubation); format: biochemical; conditions: for IC50 / IC50 for inhibition of Papain: 30 °C, 10 min pre-incubation, 100 mM sodium phosphate, 1 mM EDTA, pH 6.0, Z-Phe-Arg-MCA, Papain 120 nM
Description: Papain and Bromelain were purchased from Sigma. Papain was previously activated at 25 °C in a degassed 100 mM sodium phosphate, 1 mM EDTA, pH 6.0 buffer containing 5 mM DTT (dithiothreitol) for 10 min, as previously described. To remove the DTT excess, a 1 mL solution of activated Papain was loaded on a 3 mL syringe with 1 mL Sephadex G25 size exclusion resin (Amersham Pharmacia, Amersham, UK). The enzyme was eluted with the same assay buffer, and its activity was monitored using Z-Phe-Arg-MCA as the substrate.
The activities of Cathepsin L and Papain were assessed using Z-Phe-Arg-MCA.

SARS-CoV-2 PLpro = SARS-CoV-2 PLpro (Severe acute respiratory syndrome coronavirus 2, UniProt P0DTD1); assay: biochemical
[5] = Stability of THIA derivatives in organic solvents and buffers (LC-MS); format: physicochemical; conditions: for Stability of 10 mM stock solutions in DMSO stored at −20 °C: 10 mM in DMSO, freezer −20 °C, LC-MS
Description: We chose THIA-3 as a reference due to its simplicity in larger-scale synthesis to evaluate the stability of this class of compounds. […] In the Tris buffer, decomposition to 1,3-diphenylurea was very slow, with some decomposition only apparent after 12 h of incubation (Figure S1B). We also evaluated the stability of 10 mM stock solutions of the ten THIAs in DMSO stored in a freezer (−20 °C) by Liquid Chromatography Mass Spectrometry (LC-MS). […] DMSO is also considered a reagent, but we have not explored the decomposition of THIA compounds in DMSO further, as it falls outside the scope of this work.
Figure S1. (A) - Stability THIA-3 in DMSO with 1% H2O. (B)- Stability of THIA-3 in water,100 mM sodium phosphate, Tris buffer pH 7.4, with 1 to 40% ACN.
Figure S2. Stability of THIAs in dimethyl sulfoxide and stored at -20 °C

SARS-CoV-2 3CLpro = SARS-CoV-2 3CLpro (Severe acute respiratory syndrome coronavirus 2, UniProt P0DTD1); assay: 3CLpro inhibition, IC50 (FRET substrate, 10 min pre-incubation); format: biochemical
PLpro [6] = target: PLpro (Severe acute respiratory syndrome coronavirus 2, UniProt P0DTD1); assay: Type of inhibition (reversibility assay) on PLpro; format: biochemical, SARS-CoV-2
3CLpro = 3CLpro (Severe acute respiratory syndrome coronavirus 2, UniProt P0DTD1); assay: Type of inhibition (time dependence, reversibility) on 3CLpro; format: biochemical, SARS-CoV-2; conditions: reverted by reducing agents
Description: (§2) Initially, we identified the type of inhibition in each protease using THIA-3 as a reference compound for all the tested THIA derivatives. […] Due to the susceptibility of the THIA derivatives to reducing agents, such as Cys or DTT (Figure S4), the proteases Papain, Cathepsin L, 3CLpro, and PLpro were separately pre-activated by 5 mM DTT during 30 min, which was removed by gel filtration, forming stock solutions of the activated proteases, and then kept at −20 °C under an N2 atmosphere for future use.
as §1
(§3) Figure S3. […] The assay has been performed following the procedure described in Reference ACS Omega 6 (2021) 16584−16591. https://doi.org/10.1021/acsomega.1c01797.

Papain [7] = target: T1, Papain; assay: Type of inhibition (time dependence, reversibility) on Papain; format: biochemical; conditions: reverted by reducing agents
Description: as §2, §1, §3
Figure S4. Inhibition of Papain by THIA-3 and its reversibility by cysteine (Cys) as a reducing agent. Z-FR-MCA as substrate, Papain activity was assessed before and after pre-incubation with 5µM THIA-3 for 5 min, and then assayed after Cys addition (10 µM).

Cathepsin L = target: T2, Cathepsin L (Homo sapiens, UniProt P07711); assay: Type of inhibition on Cathepsin L; format: biochemical
T2 construct: made in house; host or cells: Pichia pastoris
T2 sequence (P07711 114-333): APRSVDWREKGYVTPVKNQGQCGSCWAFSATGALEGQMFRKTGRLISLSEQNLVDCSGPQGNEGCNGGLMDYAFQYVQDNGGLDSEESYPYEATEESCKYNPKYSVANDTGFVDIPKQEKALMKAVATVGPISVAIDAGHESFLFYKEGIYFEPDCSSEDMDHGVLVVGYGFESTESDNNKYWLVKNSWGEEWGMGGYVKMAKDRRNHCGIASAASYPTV
Description: as §2

[8] = IC50 for inhibition of 3CLpro, 30 °C, 10 min pre-incubation, 50 mM Tris, 1 mM EDTA, pH 7.5, Abz-[…](Dnp)-NH2, 3CLpro 27 nM
[9] = IC50 for inhibition of 3CLpro (bound), unit inferred

Sequence of Bromelain (P14518 whole entry): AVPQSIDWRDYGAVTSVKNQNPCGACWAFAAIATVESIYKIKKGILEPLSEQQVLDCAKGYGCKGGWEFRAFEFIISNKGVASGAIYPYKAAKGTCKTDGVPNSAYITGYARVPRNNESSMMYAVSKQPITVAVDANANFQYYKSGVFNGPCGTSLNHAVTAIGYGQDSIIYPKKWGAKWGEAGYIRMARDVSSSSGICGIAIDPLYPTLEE

| SMILES | k3, Papain inactivation (Papain [3]) [µM/s] | k4, Papain inactivation (Papain [3]) [s⁻¹] | KI (inactivation) (Papain [3]) [µM] | IC50 (Papain [4]) | IC50 for inhibition of Papain (Papain [4]) | IC50 (SARS-CoV-2 PLpro) [µM] | Stability of 10 mM stock solutions in DMSO stored at −20 °C [5] | IC50 (SARS-CoV-2 3CLpro; [8]) [µM] | further results |
| --- | --- | --- | --- | --- | --- | --- | --- | --- | --- |
| CC(C)C[C@H](NC(=O)[C@H]1O[C@@H]1C(=O)O)C(=O)NCCCCN=C(N)N (relative stereo) [E-64, L-trans-Epoxysuccinyl-leucylamido (4-guanidino)butane] |  |  |  |  |  |  |  |  | Inhibition of Bromelain (Bromelain): poor inhibition |
| Cc1ccc(-n2sc(=O)n(Cc3ccc(F)cc3)c2=O)cc1 [CCG-50014, 4-(4-fluorobenzyl)-2-p-tolyl-1,2,4-thiadiazolidine-3,5-dione] |  |  |  |  |  |  |  |  | Inhibition of Papain (Papain [1]): complete absence of papain inhibition; also recorded: failed to inhibit Papain |
| O=c1sn(-c2ccccc2)c(=O)n1Cc1ccccc1 [THIA-1] | 19.9 | 0.013 | 0.26 | 2.16 ± 0.09 µM | in the μM range | 25 ± 3 | the most resistant | 0.13 ± 0.01 |  |
| COc1ccc(-n2sc(=O)n(Cc3ccccc3)c2=O)cc1 [THIA-2] | 24.6 | 0.012 | 0.32 | 1.28 ± 0.07 µM | in the μM range | 8.3 ± 0.8 | the most resistant | 0.12 ± 0.01 |  |
| O=c1sn(-c2ccccc2)c(=O)n1-c1ccccc1 [THIA-3] | 19.7 | 0.008 | 0.17 | 0.14 ± 0.02 µM |  | 8.5 ± 0.2 |  | 0.11 ± 0.01 | Type of inhibition of PLpro (PLpro [6]): reversible inhibition; Type of inhibition of 3CLpro (3CLpro): covalent irreversible inhibition; also recorded: two-step covalent enzyme inactivation mechanism; Type of inhibition of Papain (Papain [7]): covalent irreversible inhibition; also recorded: two-step covalent enzyme inactivation mechanism; Stability in DMSO with 1% water [5]: decomposed to 1,3-diphenylurea; Stability in acetonitrile (ACN) [5]: remained stable; Type of inhibition of Cathepsin L (Cathepsin L): irreversible inhibition |
| COc1ccc(-n2sc(=O)n(-c3ccccc3)c2=O)cc1 [THIA-4] | 4.9 | 0.015 | 0.08 | 0.07 µM and 0.071 µM |  | 7.6 ± 0.9 |  | 0.13 ± 0.01 |  |
| COc1ccc(-n2sc(=O)n(-c3ccc(C)cc3)c2=O)cc1 [THIA-5] | 12.3 | 0.021 | 0.27 | 0.102 ± 0.003 µM |  | 3.9 ± 0.7 |  | 0.09 ± 0.01 |  |
| COc1ccc(-n2sc(=O)n(-c3ccc(OC)cc3)c2=O)cc1 [THIA-6] | 14.5 | 0.019 | 0.27 | 0.01 ± 0.001 µM |  | 12.5 ± 0.9 |  | 0.03 ± 0.01 | Fold higher Papain inhibitory potency than THIA-4 (Papain [4]; ratio of Papain IC50 values): sevenfold; Fold increase in Papain inhibitory potency compared to THIA-8 (Papain [4]; ratio of Papain IC50 values): 240 fold; IC50 (SARS-CoV-2 3CLpro; unit inferred): < 0.05 µM |
| COc1ccc(-n2sc(=O)n(-c3ccc(Cl)cc3)c2=O)cc1 [THIA-7] | 17.3 | 0.009 | 0.16 | 0.13 ± 0.01 µM | in the nanomolar range | 14.4 ± 0.7 | the most resistant | 0.01 ± 0.01 | IC50 (SARS-CoV-2 3CLpro; [9]): < 0.05 µM |
| COc1ccc(-n2sc(=O)n(C3CCCCC3)c2=O)cc1 [THIA-8] | 109.9 | 0.016 | 0.68 | 2.4 ± 0.1 µM | in the μM range | 4.2 ± 0.1 | the most resistant | 0.19 ± 0.01 |  |
| Cc1ccc(-n2sc(=O)n(-c3ccccc3)c2=O)cc1 [THIA-9] | 14.5 | 0.024 | 0.34 | 0.11 ± 0.01 µM |  | 10.4 ± 0.4 |  | 0.16 ± 0.08 |  |
| O=c1sn(-c2ccc(F)cc2)c(=O)n1-c1ccccc1 [THIA-10] | 13.7 | 0.022 | 0.31 | 0.01 µM and 0.011 µM |  | 10 ± 1 | the most resistant; also recorded: THIA-10 No degradation detected | 0.02 ± 0.01 | Type of inhibition of Papain (Papain [7]): two-step covalent enzyme inactivation mechanism; IC50 (SARS-CoV-2 3CLpro; [9]): < 0.05 µM |
